Earlier results, collected in US20130280327A1, “ZOLPIDEM-BASED ORODISPERSIBLE PHARMACEUTICAL TABLET” (Sanofi, priority 2010, published 2013).

Conditions: hypnotic action, oral, conventional formulations

Q: Which duration of action does the source give for Cc1ccc(-c2nc3ccc(C)cn3c2CC(=O)N(C)C)cc1 [zolpidem] here?
A: up to 6 hours
